Source: patent US11053204B2, “Pyrimidinyloxy benzene derivatives as herbicides” (FMC Corporation, priority 2015, dated 2021)

How the values were obtained:
Type in all cases: in vivo
[1] = system: sedge, umbrella (small-flower umbrella sedge, Cyperus difformis); assay: Test B flooded paddy test, plant response rating; conditions: 250 g ai/ha; Flood; scale of 0 to 100 where 0 is no effect and 100 is complete control; 13 to 15 days
How it was run: (§1)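 Ratings were visual and made relative to untreated controls after 13 to 15 greenhouse days.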

rice (Oryza sativa) = assay: Test B flooded paddy test, plant response rating; conditions: 250 g ai/ha; Flood; scale of 0 to 100 where 0 is no effect and 100 is complete control; 13 to 15 days
How it was run: as §1

[2] = system: ducksalad (Heteranthera limosa); assay: Test B flooded paddy test, plant response rating; conditions: 250 g ai/ha; Flood; scale of 0 to 100 where 0 is no effect and 100 is complete control; 13 to 15 days
How it was run: as §1

[3] = system: barnyardgrass (Echinochloa crus-galli); assay: Test B flooded paddy test, plant response rating; conditions: 250 g ai/ha; Flood; scale of 0 to 100 where 0 is no effect and 100 is complete control; 13 to 15 days
How it was run: as §1

[4] = system: pigweed (Amaranthus retroflexus); assay: Test A preemergence, visual injury rating; conditions: for Pigweed plant response rating: 0 to 100 scale (0 no effect, 100 complete control)
How it was run: (§2)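 Visual 0–100 rating (100 = complete control) taken about 10 d post-treatment relative to untreated checks. Preemergence: directed soil spray on sown loam/sand pots. Postemergence: seedlings 2–10 cm, 1–2 leaf. Non-phytotoxic solvent formulation with surfactant.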

[5] = system: ragweed (common ragweed, Ambrosia elatior); assay: Test A preemergence, visual injury rating; conditions: for Ragweed plant response rating: 0 to 100 scale (0 no effect, 100 complete control)
How it was run: as §2

kochia (Kochia scoparia) [6] = assay: Test A preemergence, visual injury rating; conditions: for Kochia plant response rating: 0 to 100 scale (0 no effect, 100 complete control)
How it was run: as §2

[7] = system: giant foxtail (Setaria faberii); assay: Test A preemergence, visual injury rating; conditions: for Foxtail, Giant plant response rating: 0 to 100 scale (0 no effect, 100 complete control)
How it was run: as §2

[8] = system: Italian ryegrass (Lolium multiflorum); assay: Test A preemergence, visual injury rating; conditions: for Ryegrass, Italian plant response rating: 0 to 100 scale (0 no effect, 100 complete control)
How it was run: as §2

[9] = system: barnyardgrass (Echinochloa crus-galli); assay: Test A preemergence, visual injury rating; conditions: for Barnyardgrass plant response rating: 0 to 100 scale (0 no effect, 100 complete control)
How it was run: as §2

[10] = system: pigweed (Amaranthus retroflexus); assay: Test A postemergence, visual injury rating; conditions: 0 is no effect, 100 is complete control
How it was run: as §2

[11] = system: ragweed (common ragweed, Ambrosia elatior); assay: Test A postemergence, visual injury rating; conditions: 0 is no effect, 100 is complete control
How it was run: as §2

[12] = system: blackgrass (Alopecurus myosuroides); assay: Test A postemergence, visual injury rating; conditions: 0 is no effect, 100 is complete control
How it was run: as §2

kochia (Kochia scoparia) [13] = assay: Test A postemergence, visual injury rating; conditions: 0 is no effect, 100 is complete control
How it was run: as §2

[14] = system: giant foxtail (Setaria faberii); assay: Test A postemergence, visual injury rating; conditions: 0 is no effect, 100 is complete control
How it was run: as §2

[15] = system: Italian ryegrass (Lolium multiflorum); assay: Test A postemergence, visual injury rating; conditions: 0 is no effect, 100 is complete control
How it was run: as §2

corn (Zea mays) = assay: Test A postemergence, visual injury rating; conditions: 0 is no effect, 100 is complete control
How it was run: as §2

[16] = system: wheat (Triticum aestivum); assay: Test A postemergence, visual injury rating; conditions: 0 is no effect, 100 is complete control
How it was run: as §2

[17] = system: galium (catchweed bedstraw, Galium aparine); assay: Test A postemergence, visual injury rating; conditions: 0 is no effect, 100 is complete control
How it was run: as §2

[18] = system: barnyardgrass (Echinochloa crus-galli); assay: Test A postemergence, visual injury rating; conditions: 0 is no effect, 100 is complete control
How it was run: as §2

[19] = 31 g ai/ha, 0 to 100 scale, 0 no effect, 100 complete control
[20] = 31 g ai/ha, 0 to 100 scale, approximately 10 days

Row | Compound | Plant response rating, Sedge, Umbrella [1] | Plant response rating, Rice (rice (Oryza sativa)) | Plant response rating, Ducksalad [2] | Plant response rating, Barnyardgrass [3] | Pigweed plant response rating ([4]; 125 g ai/ha) | Ragweed plant response rating ([5]; 125 g ai/ha) | Kochia plant response rating (kochia (Kochia scoparia) [6]; 125 g ai/ha) | Foxtail, Giant plant response rating ([7]; 125 g ai/ha) | Ryegrass, Italian plant response rating ([8]; 125 g ai/ha) | Barnyardgrass plant response rating ([9]; 125 g ai/ha) | Pigweed plant response rating (0 to 100 scale) ([10]; 125 g ai/ha) | Ragweed plant response rating (0 to 100 scale) ([11]; 125 g ai/ha) | Blackgrass plant response rating (0 to 100 scale) ([12]; 125 g ai/ha) | Kochia plant response rating (0 to 100 scale) (kochia (Kochia scoparia) [13]; 125 g ai/ha) | Foxtail, Giant plant response rating (0 to 100 scale) ([14]; 125 g ai/ha) | Ryegrass, Italian plant response rating (0 to 100 scale) ([15]; 125 g ai/ha) | Corn plant response rating (0 to 100 scale) (corn (Zea mays); 125 g ai/ha) | Wheat plant response rating (0 to 100 scale) ([16]; 125 g ai/ha) | Galium plant response rating (0 to 100 scale) ([17]; 125 g ai/ha) | Barnyardgrass plant response rating (0 to 100 scale) ([18]; 125 g ai/ha) | also measured
1 | CC(CN(C)C(=O)c1c(Br)cccc1Oc1ncc(Cl)cn1)C(F)(F)F (stereo not drawn) [Compound 18] | 0 | 0 | 0 | 0 | 10 | 0 | 0 | 0 | 0 | 0 | 10 | 0 | 0 | 0 | 0 | 0 | 0 | 0 | 0 | 0 | Pigweed plant response rating ([4]; 500 g ai/ha): 40; Ragweed plant response rating ([5]; 500 g ai/ha): 0; Kochia plant response rating (kochia (Kochia scoparia) [6]; 500 g ai/ha): 10; Foxtail, Giant plant response rating ([7]; 500 g ai/ha): 0; Ryegrass, Italian plant response rating ([8]; 500 g ai/ha): 0; Barnyardgrass plant response rating ([9]; 500 g ai/ha): 0; Pigweed plant response rating (0 to 100 scale) ([10]; 500 g ai/ha): 20; Ragweed plant response rating (0 to 100 scale) ([11]; 500 g ai/ha): 0; Blackgrass plant response rating (0 to 100 scale) ([12]; 500 g ai/ha): 0; Kochia plant response rating (0 to 100 scale) (kochia (Kochia scoparia) [13]; 500 g ai/ha): 10; Foxtail, Giant plant response rating (0 to 100 scale) ([14]; 500 g ai/ha): 0; Ryegrass, Italian plant response rating (0 to 100 scale) ([15]; 500 g ai/ha): 0; Corn plant response rating (0 to 100 scale) (corn (Zea mays); 500 g ai/ha): 0; Wheat plant response rating (0 to 100 scale) ([16]; 500 g ai/ha): 0; Galium plant response rating (0 to 100 scale) ([17]; 500 g ai/ha): 0; Barnyardgrass plant response rating (0 to 100 scale) ([18]; 500 g ai/ha): 0
2 | CN(CCC(F)(F)F)C(=O)c1c(Br)cccc1Oc1ncc(Cl)cn1 [Compound 19] | 0 | 0 | 0 | 0 | 20 | 0 | 20 | 0 | 0 | 0 | 10 | 0 | 0 | 0 | 0 | 0 | 0 | 0 | 0 | 0 | Plant response rating, Pigweed [4, 19]: 0; Plant response rating, Ragweed [5, 19]: 0; Plant response rating, Kochia (kochia (Kochia scoparia) [6]; [19]): 0; Plant response rating, Foxtail, Giant [7, 19]: 0; Plant response rating, Ryegrass, Italian [8, 19]: 0; Plant response rating, Barnyardgrass [9, 19]: 0; Pigweed plant response rating [10, 20]: 10; Ragweed plant response rating [11, 20]: 0; Blackgrass plant response rating [12, 20]: 0; Kochia plant response rating (kochia (Kochia scoparia) [13]; [20]): 0; Foxtail, Giant plant response rating [14, 20]: 0; Ryegrass, Italian plant response rating [15, 20]: 0; Corn plant response rating (corn (Zea mays); [20]): 0; Wheat plant response rating [16, 20]: 0; Galium plant response rating [17, 20]: 0; Barnyardgrass plant response rating [18, 20]: 0
3 | CN(OCC(F)(F)F)C(=O)c1c(Br)cccc1Oc1ncc(Br)cn1 [Compound 24] | 0 | 0 | 0 | 0 | 0 | 0 | 0 | 0 | 0 | 0 | 0 | 0 | 0 | 0 | 0 | 0 | 0 | 0 | 10 | 0 | Pigweed plant response rating ([4]; 500 g ai/ha): 90; Ragweed plant response rating ([5]; 500 g ai/ha): 0; Kochia plant response rating (kochia (Kochia scoparia) [6]; 500 g ai/ha): 0; Foxtail, Giant plant response rating ([7]; 500 g ai/ha): 20; Ryegrass, Italian plant response rating ([8]; 500 g ai/ha): 0; Barnyardgrass plant response rating ([9]; 500 g ai/ha): 30; Pigweed plant response rating (0 to 100 scale) ([10]; 500 g ai/ha): 10; Ragweed plant response rating (0 to 100 scale) ([11]; 500 g ai/ha): 0; Blackgrass plant response rating (0 to 100 scale) ([12]; 500 g ai/ha): 0; Kochia plant response rating (0 to 100 scale) (kochia (Kochia scoparia) [13]; 500 g ai/ha): 0; Foxtail, Giant plant response rating (0 to 100 scale) ([14]; 500 g ai/ha): 0; Ryegrass, Italian plant response rating (0 to 100 scale) ([15]; 500 g ai/ha): 0; Corn plant response rating (0 to 100 scale) (corn (Zea mays); 500 g ai/ha): 0; Wheat plant response rating (0 to 100 scale) ([16]; 500 g ai/ha): 0; Galium plant response rating (0 to 100 scale) ([17]; 500 g ai/ha): 20; Barnyardgrass plant response rating (0 to 100 scale) ([18]; 500 g ai/ha): 10
